Data taken from patent publication US20130172342A1, “BENZIMIDAZOLE DERIVATIVES AS SELECTIVE BLOCKERS OF PERSISTENT SODIUM CURRENT” (Allergan, Inc., priority 2011, published 2013).

Assays:
Format in all cases: cell-based
[1] = test system: persistent sodium currents; test: FLIPR sodium depletion/repletion assay (voltage-sensitive dyes); conditions: for IC50: 8-point concentration-response, antagonism of persistent current; for HTS % Block: single concentration HTS protocol, inhibition of the control response
Method: To identify compounds that block persistent sodium currents, they were tested in a sodium depletion/repletion assay in which changes in the fluorescence of voltage-sensitive dyes measured in a Fluorometric Imaging Plate Reader (FLIPR) were used to infer the effects of the compounds on persistent sodium currents. The compounds were first tested in a single concentration HTS protocol.

[2] = test system: transient sodium currents; test: IonWorks automated patch clamp, whole-cell voltage clamp; conditions: inhibition of transient sodium currents, read-out: IW IC50
Method: To determine the selectivity of effects of these compounds on the persistent current, the inhibition of transient sodium currents using an automated patch clamp was also tested for the compounds. For direct measurement of Na+ currents the IonWorks automated patch clamp system was used. The IonWorks system is a high-throughput electrophysiological instrument that performs whole-cell voltage clamp recordings in a 384-well plate format.

[3] = test system: Nav1.3 or Nav1.6 channels; test: gigohm-seal manual patch-clamp (MPC) in HEK cells stably transfected with sodium channels; conditions: for block of persistent versus transient sodium currents: FIG. 1, percentage of control current at steady state, n=3; for concentration effective in blocking 50% of the persistent current: HEK cells expressing Nav1.3 or Nav1.6, FIG. 1
Method: Nav1.3 or Nav1.6 channels were expressed in HEK cells, currents were measured using standard MPC electrophysiological techniques. Data are summarized from at least 3 experiments for each concentration tested and were normalized to the control currents before compound addition. Data are presented as the mean and standard error of the mean (n=3) of the percentage of the control current observed at steady state after compound addition.
Therefore, the efficacy and selectivity of the identified persistent current antagonists were verified using conventional gigohm-seal manual patch-clamp (MPC).
MPC experiments were conducted on human embroynic kidney (HEK) cells stably transfected with sodium channels were plated on coverslips. Cells were patch clamped using standard patch-clamp techniques (Hamill, O. P., A. Marty, et al., 1981 Pflugers Arch. 391:85-100). Once sufficient persistent current was established, buffer was introduced into the chamber at a constant flow rate of […] until the persistent current stabilized. Subsequent concentration-response experiments were conducted using this same flow rate. After application of the compound, current amplitude was monitored until equilibrium was established. The data recorded at equilibrium was normalized to the control current measured during perfusion with control buffer in the absence of a test compound. Adequate solution perfusion and gigohm seal stability were monitored throughout the experiment. The compound's antagonism of persistent or transient sodium currents is expressed as the IC5O of block for the respective current (see Table 1). Selectivity for block of the persistent current was calculated as the ratio of the IC5O for the transient current divided by the IC5O for the persistent current.
Direct measurement of the sodium current in cells expressing either Nav1.3 or
As shown for the exemplary compounds (compound #1 in Table 1 and Compound A shown below)

Structure (SMILES)	IC50 [1] [nM]	HTS % Block [1] [%]	IC50 [2] [µM]	block of persistent versus transient sodium currents [3]	concentration effective in blocking 50% of the persistent current [3]
Cc1ccc(C)c(OCCn2c(CN3CCOCC3)nc3ccccc32)c1	2300	92.7	> 30	–	–
C=CCc1ccccc1OCCn1c(CN2CCOCC2)nc2ccccc21	1140	91.5	> 30	–	–
Cc1ccc(OCCn2c(CN3CCCCC3)nc3ccccc32)cc1C	589	80.1	23.4	–	–
Cc1cccc(OCCn2c(CN3CCOCC3)nc3ccccc32)c1C	3530	97.3	> 30	–	–
CC(C)N(C(=O)Cn1c(CN2CCCCC2)nc2ccccc21)c1ccccc1	6350	84.2	> 30	–	–
COc1ccccc1OCCCCn1c(CN2CCCCC2)nc2ccccc21	830	95.5	> 30	–	–
COc1ccc(OCCn2c(C(C)N3CCOCC3)nc3ccccc32)cc1 (stereo not drawn)	9810	92.9	> 30	–	–
Cc1ccc(OCCn2c(CN3CCOCC3)nc3ccccc32)c(C)c1	4520	79.3	> 30	–	–
Cc1ccc(C(C)C)c(OCCn2c(CN3CCOCC3)nc3ccccc32)c1 [Compound A]	–	–	–	effective in blocking persistent sodium currents at concentrations that did not affect transient currents	low to submicromolar
C/C=C/c1ccc(OCCn2c(CN3CCOCC3)nc3ccccc32)c(OC)c1	18200	75.7	> 30	–	–
COc1cccc(OCCn2c(CN3CCCCC3)nc3ccccc32)c1	521	96.5	> 30	–	–
Cc1cccc(C)c1OCCn1c(CN2CCCCC2)nc2ccccc21 [Compound #1, 1-[2-(2,6-Dimethylphenoxy)ethyl]-2-piperidin-1-ylmethyl-1H-benzimidazole]	66	–	> 30	effective in blocking persistent sodium currents at concentrations that did not affect transient currents	low to submicromolar
Cc1ccc(OCCn2c(CN3CCOCC3)nc3ccccc32)cc1	6380	92.3	> 30	–	–
Cc1ccc(OCCn2c(CN3CCCCC3)nc3ccccc32)cc1	751	94.6	> 30	–	–
COc1ccc(OCCn2c(CN3CCOCC3)nc3ccccc32)cc1	> 30000	57.7	> 30	–	–
c1ccc(OCCn2c(CN3CCOCC3)nc3ccccc32)cc1	7790	99.2	> 30	–	–

Structure (SMILES)	IC50 [1] [nM]	HTS % Block [1] [%]	IC50 [2] [µM]	block of persistent versus transient sodium currents [3]	concentration effective in blocking 50% of the persistent current [3]
COc1ccccc1OCCn1c(CN2CCCCC2)nc2ccccc21	347	94.8	> 30	–	–
Cc1cccc(C)c1OCCCn1c(CN2CCOCC2)nc2ccccc21	852	98.9	> 30	–	–
C/C=C/c1ccc(OCCn2c(C(C)N3CCCCC3)nc3ccccc32)c(OC)c1 (stereo not drawn)	> 30000	34.6	> 30	–	–
Cc1cccc(OCCn2c(CN3CCCCC3)nc3ccccc32)c1C	452	78.9	13.8	–	–
CCn1c(C(C)N2CCCCC2)nc2ccccc21 (stereo not drawn)	16300	90.6	> 30	–	–
Cc1cc(C)cc(OCCn2c(CN3CCOCC3)nc3ccccc32)c1	1460	92.6	> 30	–	–
COc1ccccc1OCCn1c(CN2CCOCC2)nc2ccccc21	> 30000	70.1	> 30	–	–
Cc1ccc(C)c(OCCn2c(CN3CCCCC3)nc3ccccc32)c1	559	88.9	22.8	–	–
C=CCc1ccc(OCCn2c(CN3CCOCC3)nc3ccccc32)c(OC)c1	5120	70.7	≥ 30	–	–
Cc1ccccc1OCCn1c(CN2CCCCC2)nc2ccccc21	5560	93.6	> 30	–	–
COc1ccc(OCCn2c(C(C)N3CCCCC3)nc3ccccc32)cc1 (stereo not drawn)	950	95.2	> 30	–	–
Cc1cccc(C)c1OCCn1c(CN2CCOCC2)nc2ccccc21	729	95.2	> 30	–	–
Clc1ccc(OCCn2c(CN3CCCCC3)nc3ccccc32)cc1	1460	80.7	27.8	–	–
CCc1ccc(OCCn2c(CN3CCOCC3)nc3ccccc32)cc1	3670	90.8	30	–	–
Cc1cccc(OCCn2c(CN3CCOCC3)nc3ccccc32)c1	7850	86.5	> 30	–	–
Cc1ccccc1OCCn1c(CN2CCOCC2)nc2ccccc21	3240	92.7	> 30	–	–
